Values of other authors, collected in US12599665B2, “Gene fusions for control of genetically modified cells” (A2 Biotherapeutics, Inc., priority 2020, dated 2026).

How the values were obtained:
[1] = molecular target: Estrogen receptor-β (NR3A2) (Homo sapiens, UniProt Q92731); conditions: antagonist, Table 2; cited from earlier work
[2] = molecular target: T1, Mineralocorticoid receptor (NR3C2) (Homo sapiens, UniProt P08235); conditions: antagonist, Table 2; cited from earlier work
T1 sequence (P08235 1-984): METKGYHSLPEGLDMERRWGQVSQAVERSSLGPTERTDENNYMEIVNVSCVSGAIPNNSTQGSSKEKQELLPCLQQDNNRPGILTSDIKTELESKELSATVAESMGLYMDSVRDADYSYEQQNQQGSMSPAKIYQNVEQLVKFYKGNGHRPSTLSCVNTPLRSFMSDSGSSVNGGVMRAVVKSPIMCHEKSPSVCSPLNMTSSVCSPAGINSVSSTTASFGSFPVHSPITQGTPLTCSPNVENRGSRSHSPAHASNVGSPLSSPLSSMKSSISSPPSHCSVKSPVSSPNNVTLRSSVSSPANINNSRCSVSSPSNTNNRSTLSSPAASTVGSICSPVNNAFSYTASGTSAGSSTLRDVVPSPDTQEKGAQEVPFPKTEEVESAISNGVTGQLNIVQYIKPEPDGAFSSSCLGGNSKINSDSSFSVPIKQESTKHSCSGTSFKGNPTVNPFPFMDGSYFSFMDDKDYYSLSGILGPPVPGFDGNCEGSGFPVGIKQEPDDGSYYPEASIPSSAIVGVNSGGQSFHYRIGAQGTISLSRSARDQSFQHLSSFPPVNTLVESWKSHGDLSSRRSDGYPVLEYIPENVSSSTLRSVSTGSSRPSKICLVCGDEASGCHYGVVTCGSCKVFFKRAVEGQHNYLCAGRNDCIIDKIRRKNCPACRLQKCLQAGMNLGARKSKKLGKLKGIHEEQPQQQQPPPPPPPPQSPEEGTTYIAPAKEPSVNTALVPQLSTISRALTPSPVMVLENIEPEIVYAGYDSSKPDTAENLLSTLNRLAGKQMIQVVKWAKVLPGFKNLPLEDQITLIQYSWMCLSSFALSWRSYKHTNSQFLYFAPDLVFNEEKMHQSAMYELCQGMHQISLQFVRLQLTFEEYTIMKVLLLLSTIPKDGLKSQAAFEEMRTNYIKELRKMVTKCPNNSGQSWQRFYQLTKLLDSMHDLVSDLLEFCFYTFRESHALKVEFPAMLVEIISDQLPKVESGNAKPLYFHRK

Vitamin D receptor [3] = molecular target: T2, Vitamin D receptor (Homo sapiens, UniProt P11473); conditions: antagonist, Table 2; cited from earlier work
T2 sequence (P11473 1-427): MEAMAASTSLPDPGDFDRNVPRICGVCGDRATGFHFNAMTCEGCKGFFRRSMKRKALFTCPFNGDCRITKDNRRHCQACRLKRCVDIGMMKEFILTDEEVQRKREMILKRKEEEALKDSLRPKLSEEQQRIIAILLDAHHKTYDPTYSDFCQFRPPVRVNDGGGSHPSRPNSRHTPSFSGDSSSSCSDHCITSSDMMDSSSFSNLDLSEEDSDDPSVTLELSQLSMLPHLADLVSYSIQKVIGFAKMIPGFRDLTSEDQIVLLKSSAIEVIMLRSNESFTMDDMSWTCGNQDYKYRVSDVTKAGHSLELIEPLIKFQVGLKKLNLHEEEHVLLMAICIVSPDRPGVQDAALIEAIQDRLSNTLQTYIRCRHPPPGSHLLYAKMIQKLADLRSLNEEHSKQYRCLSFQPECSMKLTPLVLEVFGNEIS

Vitamin D receptor [4] = molecular target: T3, Vitamin D receptor (Gallus gallus, UniProt O42392); conditions: antagonist, Table 2; Chicken; cited from earlier work
T3 sequence (O42392 1-451): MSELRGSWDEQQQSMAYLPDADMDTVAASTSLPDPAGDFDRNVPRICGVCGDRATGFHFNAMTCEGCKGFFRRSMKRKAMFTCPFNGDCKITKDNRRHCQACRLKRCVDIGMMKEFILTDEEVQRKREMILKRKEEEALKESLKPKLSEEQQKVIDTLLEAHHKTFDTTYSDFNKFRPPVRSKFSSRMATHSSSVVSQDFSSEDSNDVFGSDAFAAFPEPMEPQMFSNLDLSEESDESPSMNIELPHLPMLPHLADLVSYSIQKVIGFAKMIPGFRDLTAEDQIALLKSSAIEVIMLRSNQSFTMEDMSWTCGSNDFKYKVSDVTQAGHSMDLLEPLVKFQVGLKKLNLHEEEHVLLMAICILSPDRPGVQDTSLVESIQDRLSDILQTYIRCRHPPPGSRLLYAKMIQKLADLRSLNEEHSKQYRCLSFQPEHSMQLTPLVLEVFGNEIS

[5] = molecular target: T4, Peroxisome proliferator-activated receptor-γ (NR1C3) (Homo sapiens, UniProt P37231); conditions: antagonist, Table 2, cited from earlier work
T4 sequence (P37231 1-505): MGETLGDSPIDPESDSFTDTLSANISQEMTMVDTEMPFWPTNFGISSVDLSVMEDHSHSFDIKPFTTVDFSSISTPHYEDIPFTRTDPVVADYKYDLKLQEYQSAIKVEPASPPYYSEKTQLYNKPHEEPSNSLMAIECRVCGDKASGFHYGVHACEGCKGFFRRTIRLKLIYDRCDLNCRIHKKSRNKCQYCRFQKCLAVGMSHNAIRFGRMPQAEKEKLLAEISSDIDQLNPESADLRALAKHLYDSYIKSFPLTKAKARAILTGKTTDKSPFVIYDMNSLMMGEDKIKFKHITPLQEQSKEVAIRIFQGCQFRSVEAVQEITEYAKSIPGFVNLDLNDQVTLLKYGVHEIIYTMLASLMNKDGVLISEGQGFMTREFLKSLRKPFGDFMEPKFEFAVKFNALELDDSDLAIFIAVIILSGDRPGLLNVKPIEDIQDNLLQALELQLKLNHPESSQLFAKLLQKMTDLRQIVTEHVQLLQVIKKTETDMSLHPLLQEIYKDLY

[6] = molecular target: T5, Glucocorticoid receptor (NR3C1) (Homo sapiens, UniProt P04150); conditions: antagonist, Table 2; cited from earlier work
T5 sequence (P04150 1-777): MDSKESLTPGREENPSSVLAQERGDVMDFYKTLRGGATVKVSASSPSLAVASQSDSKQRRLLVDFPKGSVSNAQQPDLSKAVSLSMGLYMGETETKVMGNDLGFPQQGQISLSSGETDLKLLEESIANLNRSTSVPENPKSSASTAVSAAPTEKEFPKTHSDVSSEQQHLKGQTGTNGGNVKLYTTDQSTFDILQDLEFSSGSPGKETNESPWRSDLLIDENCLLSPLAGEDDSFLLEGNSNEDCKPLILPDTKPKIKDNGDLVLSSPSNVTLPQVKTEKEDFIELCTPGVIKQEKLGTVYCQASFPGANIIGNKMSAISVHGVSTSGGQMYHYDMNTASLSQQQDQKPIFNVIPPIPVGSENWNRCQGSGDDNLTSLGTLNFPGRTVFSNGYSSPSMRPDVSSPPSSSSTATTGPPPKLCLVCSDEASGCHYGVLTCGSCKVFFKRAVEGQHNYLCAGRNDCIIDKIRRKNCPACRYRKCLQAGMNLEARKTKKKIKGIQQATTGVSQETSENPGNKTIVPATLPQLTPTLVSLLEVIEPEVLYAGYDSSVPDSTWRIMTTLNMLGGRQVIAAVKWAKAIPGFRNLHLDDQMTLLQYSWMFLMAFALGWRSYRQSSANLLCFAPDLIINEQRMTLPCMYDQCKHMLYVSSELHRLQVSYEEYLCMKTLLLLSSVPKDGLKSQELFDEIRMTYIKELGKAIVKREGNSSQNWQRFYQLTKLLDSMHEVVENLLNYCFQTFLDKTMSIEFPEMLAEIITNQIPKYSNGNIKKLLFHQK

[7] = molecular target: T6, ER(T2) (human ER LBD G400V/M543A/L544A) (Homo sapiens, UniProt P03372, G400V/L544A/M543A); conditions: ER(T2) vs ER(T); cited from earlier work
T6 construct: a human ER LBD and comprising point mutations G400V/M543A/L544A, which is termed ER(T2)
T6 sequence (P03372 311-547 G400V/M543A/L544A limits assumed): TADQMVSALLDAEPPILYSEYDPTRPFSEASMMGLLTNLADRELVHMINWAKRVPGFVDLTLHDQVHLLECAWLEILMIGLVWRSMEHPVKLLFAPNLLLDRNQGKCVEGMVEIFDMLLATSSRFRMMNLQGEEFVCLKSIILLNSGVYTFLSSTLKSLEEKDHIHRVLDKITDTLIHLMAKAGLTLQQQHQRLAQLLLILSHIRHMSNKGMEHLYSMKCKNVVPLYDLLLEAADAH

[8] = molecular target: T7, Peroxisome proliferator-activated receptor-α (NR1C1) (Homo sapiens, UniProt Q07869); conditions: antagonist, Table 2; cited from earlier work
T7 sequence (Q07869 1-468): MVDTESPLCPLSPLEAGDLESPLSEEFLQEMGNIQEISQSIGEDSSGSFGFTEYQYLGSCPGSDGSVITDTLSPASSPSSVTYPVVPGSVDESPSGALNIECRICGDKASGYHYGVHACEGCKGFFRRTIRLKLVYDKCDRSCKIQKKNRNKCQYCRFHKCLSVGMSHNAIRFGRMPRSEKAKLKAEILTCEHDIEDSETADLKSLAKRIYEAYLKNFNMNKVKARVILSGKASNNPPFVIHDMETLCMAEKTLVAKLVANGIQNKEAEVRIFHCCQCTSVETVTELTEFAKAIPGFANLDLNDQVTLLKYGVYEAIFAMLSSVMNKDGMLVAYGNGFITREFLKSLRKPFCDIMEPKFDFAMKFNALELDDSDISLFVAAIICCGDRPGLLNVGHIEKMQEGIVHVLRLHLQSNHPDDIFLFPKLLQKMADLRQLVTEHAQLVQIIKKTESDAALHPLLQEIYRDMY

Rev-Erb-α (NR1D1) = molecular target: T8, Rev-Erb-α (NR1D1) (Homo sapiens, UniProt P20393); conditions: antagonist, Table 2; cited from earlier work
T8 sequence (P20393 1-614): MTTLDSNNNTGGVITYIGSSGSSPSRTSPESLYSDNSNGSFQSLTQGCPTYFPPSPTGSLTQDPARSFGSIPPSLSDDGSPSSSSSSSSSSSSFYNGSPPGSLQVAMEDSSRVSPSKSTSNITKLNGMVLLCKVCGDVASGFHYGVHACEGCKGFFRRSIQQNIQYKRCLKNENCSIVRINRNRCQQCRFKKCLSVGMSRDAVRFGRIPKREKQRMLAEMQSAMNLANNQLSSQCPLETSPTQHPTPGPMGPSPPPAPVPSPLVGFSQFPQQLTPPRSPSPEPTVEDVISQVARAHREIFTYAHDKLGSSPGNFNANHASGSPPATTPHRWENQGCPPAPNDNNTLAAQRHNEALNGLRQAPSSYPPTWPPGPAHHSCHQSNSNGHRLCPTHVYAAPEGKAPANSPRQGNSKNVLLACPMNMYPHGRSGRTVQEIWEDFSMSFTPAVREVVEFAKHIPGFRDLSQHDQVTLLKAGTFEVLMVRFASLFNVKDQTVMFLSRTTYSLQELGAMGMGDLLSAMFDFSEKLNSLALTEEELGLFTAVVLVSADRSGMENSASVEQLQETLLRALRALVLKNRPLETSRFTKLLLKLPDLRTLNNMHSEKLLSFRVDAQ

Estrogen receptor-β (NR3A2), sequence (Q92731 whole entry): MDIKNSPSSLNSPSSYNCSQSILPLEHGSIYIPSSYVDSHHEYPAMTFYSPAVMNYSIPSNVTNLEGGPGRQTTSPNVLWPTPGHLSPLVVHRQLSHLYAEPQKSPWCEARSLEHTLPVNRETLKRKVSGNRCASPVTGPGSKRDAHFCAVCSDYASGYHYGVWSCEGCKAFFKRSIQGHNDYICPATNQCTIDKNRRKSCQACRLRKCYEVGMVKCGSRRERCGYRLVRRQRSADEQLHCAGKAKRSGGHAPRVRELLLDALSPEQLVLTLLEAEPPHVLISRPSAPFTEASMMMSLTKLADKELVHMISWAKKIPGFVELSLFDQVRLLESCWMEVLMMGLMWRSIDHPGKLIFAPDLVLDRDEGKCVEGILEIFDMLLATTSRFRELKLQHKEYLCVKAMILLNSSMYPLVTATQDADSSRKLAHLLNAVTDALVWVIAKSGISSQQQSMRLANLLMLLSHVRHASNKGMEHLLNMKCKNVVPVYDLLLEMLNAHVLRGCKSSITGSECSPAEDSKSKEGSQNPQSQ

CC[C@@H]1Cc2cc(O)ccc2C2=C1c1ccc(O)cc1C[C@H]2CC [R,R-THC]
pKi [1]: 8.4) (CAS

CCOc1ncc(C)c2c1[C@H](c1ccc(C#N)cc1OC)C(C(N)=O)=C(C)N2 [finerenone]
pIC50 [2]: (pIC50 7.7),

Oc1ccc(-c2c(-c3ccccc3)nn3c(C(F)(F)F)cc(C(F)(F)F)nc23)cc1 [PHTPP]
pKi [1]: (pKi 6.9) (CAS

C=C1/C(=C\C=C2/CCC[C@]3(C)[C@@H]([C@H](C)/C=C/[C@@H](O)C4(C(=O)OCCCC)CC4)CC[C@@H]23)C[C@@H](O)C[C@@H]1O [ZK159222]
pIC50 (Vitamin D receptor [3]): (pIC50 7.5)

C=C1C[C@H](C[C@@H](C)[C@H]2CC[C@H]3/C(=C/C=C4/C[C@@H](O)C[C@H](O)C4=C)CCC[C@]23C)OC1=O [TEI-9647]
pIC50 (Vitamin D receptor [4]): (pIC50 8.2)

O=C(Nc1ccccc1)c1cc([N+](=O)[O-])ccc1Cl [GW9662]
pIC50 ([5]; Irreversible inhibition): (pIC50 8.1)

CN(C)c1ccc([C@H]2C[C@]3(C)[C@@H](CC[C@]3(O)CCCO)[C@@H]3CCC4=CC(=O)CCC4=C32)cc1 [onapristone]
pIC50 [2]: (pIC50 6.3), | pIC50 [6]: (pIC50 7.6),

4-hydroxytamoxifen [4-OH-Tamoxifen]
sensitivity of ER(T2) to 4-OH-Tamoxifen relative to the ER(T) mutant [7]: roughly 10 fold

CCC(=O)NC[C@H](Cc1ccc(OCCc2nc(-c3ccccc3)oc2C)cc1)N/C(C)=C\C(=O)c1ccc(C(F)(F)F)cc1 [GW6471]
pIC50 [8]: (pIC50 6.6)

COC(=O)[C@]12CCC(C)(C)C[C@H]1[C@H]1C(=O)C=C3[C@@]4(C)C=C(C#N)C(=O)C(C)(C)[C@@H]4CC[C@@]3(C)[C@]1(C)CC2 [CDDO-Me, Bardoxolone methyl]
pKi [5]: 6.9)

CCOC(=O)C1Cc2ccccc2CN1C(=O)c1ccc(SC)s1 (stereo not drawn) [SR8278]
pIC50 (Rev-Erb-α (NR1D1)): 6.5) (CAS
